Patent US20250122219A1 (priority 2023, published 2025)
Read-outs that look alike come from different tables or passages of the source.

Columns and labels:
HIV-1 (IIIB) = assay: Antiviral assay in MT-4 cells; type: cell-based
How it was run: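 HIV-1 IIIB-infected MT-4 cells (fresh 1:250 virus stock dilution; mock-infected controls) incubated 5 days at 37 °C with serially diluted compounds in RPMI/10% FBS; 5 μM AZT as positive control. Cell viability read by CellTiter-Glo luminescence as measure of protection from viral replication.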

[1] = Cytotoxicity assay in MT-4 cells; type: cell-based; conditions: human; uninfected MT-4 cells, 5 days incubation, Cell Titer Glo; read-out: MT4 CC50
How it was run: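 Uninfected MT-4 cells exposed to serially diluted compounds in RPMI with 10% FBS for 5 days at 37 °C. Viability by Cell Titer Glo chemiluminescence. Puromycin […] as baseline cytotoxicity control.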

[2] = Human immunodeficiency virus 1, MT4, 120 h, HIV-1 IIIB in MT-4 cells, 5 days incubation, Cell Titer Glo, read-out: MT4 EC50

Row | SMILES | EC50 (HIV-1 (IIIB); [2]) [nM] | CC50 at 5 days [1] [nM] | EC50 (HIV-1 (IIIB); Human immunodeficiency virus 1, IIIB, MT4, 120 h, read-out: MT4 EC50 (nM)) [nM]
1 | CC1=NO[C@@]2(CC[C@H](C)N3C[C@H]2n2cc(C(=O)NCc4ccc(F)cc4F)c(=O)c(OC(=O)CCC(C)C)c2C3=O)C1 [Example 57, (3′S,5S,7′R)-10′-((2,4-difluorobenzyl)carbamoyl)-3,3′-dimethyl-1′,11′-dioxo-1′,4′,5′,11′-tetrahydro-3′H,4H,7′H-spiro[isoxazole-5,6′-[2,7]methanopyrido[1,2-a][1,4]diazonin]-12′-yl 4-methylpentanoate] | 1.54 | 23100 | 
2 | COC1=NO[C@@]2(CC[C@H](C)N3C[C@H]2n2cc(C(=O)NCc4ccc(F)cc4F)c(=O)c(OC(=O)CCC4CCCC4)c2C3=O)C1 [Example 58, (3′S,5S,7′R)-10′-((2,4-difluorobenzyl)carbamoyl)-3-methoxy-3′-methyl-1′,11′-dioxo-1′,4′,5′,11′-tetrahydro-3′H,4H,7′H-spiro[isoxazole-5,6′-[2,7]methanopyrido[1,2-a][1,4]diazonin]-12′-yl 3-cyclopentylpropanoate] | 0.284 | 23900 | 
3 | CC1=NO[C@@]2(CC[C@H](C)N3C[C@H]2n2cc(C(=O)NCc4ccc(F)cc4F)c(=O)c(OC(=O)CCC4CCCC4)c2C3=O)C1 [Example 59, (3′S,5S,7′R)-10′-((2,4-difluorobenzyl)carbamoyl)-3,3′-dimethyl-1′,11′-dioxo-1′,4′,5′,11′-tetrahydro-3′H,4H,7′H-spiro[isoxazole-5,6′-[2,7]methanopyrido[1,2-a][1,4]diazonin]-12′-yl 3-cyclopentylpropanoate] | 0.459 | 15400 | 
4 | COC1=NO[C@@]2(CC[C@H](C)N3C[C@H]2n2cc(C(=O)NCc4ccc(F)cc4F)c(=O)c(OC(=O)CCCC(C)C)c2C3=O)C1 [Example 60, (3′S,5S,7′R)-10′-((2,4-difluorobenzyl)carbamoyl)-3-methoxy-3′-methyl-1′,11′-dioxo-1′,4′,5′,11′-tetrahydro-3′H,4H,7′H-spiro[isoxazole-5,6′-[2,7]methanopyrido[1,2-a][1,4]diazonin]-12′-yl 5-methylhexanoate] | 0.539 | 21000 | 
5 | CC1=NO[C@@]2(CC[C@H](C)N3C[C@H]2n2cc(C(=O)NCc4ccc(F)cc4F)c(=O)c(OC(=O)CCCC(C)C)c2C3=O)C1 [Example 61, (3′S,5S,7′R)-10′-((2,4-difluorobenzyl)carbamoyl)-3,3′-dimethyl-1′,11′-dioxo-1′,4′,5′,11′-tetrahydro-3′H,4H,7′H-spiro[isoxazole-5,6′-[2,7]methanopyrido[1,2-a][1,4]diazonin]-12′-yl 5-methylhexanoate] | 0.733 | 20600 | 
6 | COC1=NO[C@@]2(CC[C@H](C)N3C[C@H]2n2cc(C(=O)NCc4ccc(F)cc4F)c(=O)c(OC(=O)CCCCCC(C)C)c2C3=O)C1 [Example 64, (3′S,5S,7′R)-10′-((2,4-difluorobenzyl)carbamoyl)-3-methoxy-3′-methyl-1′,11′-dioxo-1′,4′,5′,11′-tetrahydro-3′H,4H,7′H-spiro[isoxazole-5,6′-[2,7]methanopyrido[1,2-a][1,4]diazonin]-12′-yl 7-methyloctanoate] | 2.48 | 38100 | 
7 | CC1=NO[C@@]2(CC[C@H](C)N3C[C@H]2n2cc(C(=O)NCc4ccc(F)cc4F)c(=O)c(OC(=O)CCCCCC(C)C)c2C3=O)C1 [Example 65, (3′S,5S,7′R)-10′-((2,4-difluorobenzyl)carbamoyl)-3,3′-dimethyl-1′,11′-dioxo-1′,4′,5′,11′-tetrahydro-3′H,4H,7′H-spiro[isoxazole-5,6′-[2,7]methanopyrido[1,2-a][1,4]diazonin]-12′-yl 7-methyloctanoate] | 3.01 | 21800 | 
8 | COC1=NO[C@@]2(CC[C@H](C)N3C[C@H]2n2cc(C(=O)NCc4ccc(F)cc4F)c(=O)c(OC(=O)CCCCCCC(C)C)c2C3=O)C1 [Example 66, (3′S,5S,7′R)-10′-((2,4-difluorobenzyl)carbamoyl)-3-methoxy-3′-methyl-1′,11′-dioxo-1′,4′,5′,11′-tetrahydro-3′H,4H,7′H-spiro[isoxazole-5,6′-[2,7]methanopyrido[1,2-a][1,4]diazonin]-12′-yl 8-methylnonanoate] | 0.316 | 22300 | 
9 | CC1=NO[C@@]2(CC[C@H](C)N3C[C@H]2n2cc(C(=O)NCc4ccc(F)cc4F)c(=O)c(OC(=O)CCCCCCC(C)C)c2C3=O)C1 [Example 67, (3′S,5S,7′R)-10′-((2,4-difluorobenzyl)carbamoyl)-3,3′-dimethyl-1′,11′-dioxo-1′,4′,5′,11′-tetrahydro-3′H,4H,7′H-spiro[isoxazole-5,6′-[2,7]methanopyrido[1,2-a][1,4]diazonin]-12′-yl 8-methylnonanoate] | 0.196 | 18900 | 
10 | CC/C=C\C/C=C\C/C=C\C/C=C\C/C=C\CCCC(=O)Oc1c2n(cc(C(=O)NCc3ccc(F)cc3F)c1=O)[C@@H]1CN(C2=O)[C@@H](C)CC[C@]12CC(C)=NO2 [Example 68, (3′S,5S,7′R)-10′-((2,4-difluorobenzyl)carbamoyl)-3,3′-dimethyl-1′,11′-dioxo-1′,4′,5′,11′-tetrahydro-3′H,4H,7′H-spiro[isoxazole-5,6′-[2,7]methanopyrido[1,2-a][1,4]diazonin]-12′-yl (5Z,8Z,11Z,14Z,17Z)-icosa-5,8,11,14,17-pentaenoate] | 1.09 | 16500 | 
11 | CC/C=C\C/C=C\C/C=C\C/C=C\C/C=C\CCCC(=O)Oc1c2n(cc(C(=O)NCc3ccc(F)cc3F)c1=O)[C@@H]1CN(C2=O)[C@@H](C)CC[C@]12CC(OC)=NO2 [Example 69, (3′S,5S,7′R)-10′-((2,4-difluorobenzyl)carbamoyl)-3-methoxy-3′-methyl-1′,11′-dioxo-1′,4′,5′,11′-tetrahydro-3′H,4H,7′H-spiro[isoxazole-5,6′-[2,7]methanopyrido[1,2-a][1,4]diazonin]-12′-yl (5Z,8Z,11Z,14Z,17Z)-icosa-5,8,11,14,17-pentaenoate] | 0.54 | 42200 | 
12 | COCCCCCC(=O)Oc1c2n(cc(C(=O)NCc3ccc(F)cc3F)c1=O)[C@@H]1CN(C2=O)[C@@H](C)CC[C@]12CC(OC)=NO2 [Example 70, (3′S,5S,7′R)-10′-((2,4-difluorobenzyl)carbamoyl)-3-methoxy-3′-methyl-1′,11′-dioxo-1′,4′,5′,11′-tetrahydro-3′H,4H,7′H-spiro[isoxazole-5,6′-[2,7]methanopyrido[1,2-a][1,4]diazonin]-12′-yl 6-methoxyhexanoate] | 1.02 | 17600 | 
13 | COCCCCCC(=O)Oc1c2n(cc(C(=O)NCc3ccc(F)cc3F)c1=O)[C@@H]1CN(C2=O)[C@@H](C)CC[C@]12CC(C)=NO2 [Example 71, (3′S,5S,7′R)-10′-((2,4-difluorobenzyl)carbamoyl)-3,3′-dimethyl-1′,11′-dioxo-1′,4′,5′,11′-tetrahydro-3′H,4H,7′H-spiro[isoxazole-5,6′-[2,7]methanopyrido[1,2-a][1,4]diazonin]-12′-yl 6-methoxyhexanoate] | 1.79 | 19500 | 
14 | COC1=NO[C@@]2(CC[C@H](C)N3C[C@H]2n2cc(C(=O)NCc4ccc(F)cc4F)c(=O)c(OC(=O)CCCC(=O)O)c2C3=O)C1 [Example 73, 5-(((3′S,5S,7′R)-10′-((2,4-difluorobenzyl)carbamoyl)-3-methoxy-3′-methyl-1′,11′-dioxo-1′,4′,5′,11′-tetrahydro-3′H,4H,7′H-spiro[isoxazole-5,6′-[2,7]methanopyrido[1,2-a][1,4]diazonin]-12′-yl)oxy)-5-oxopentanoic acid] | 0.797 | 20200 | 
15 | CC1=NO[C@@]2(CC[C@H](C)N3C[C@H]2n2cc(C(=O)NCc4ccc(F)cc4F)c(=O)c(OC(=O)/C=C/C(=O)O)c2C3=O)C1 [Example 75, (E)-4-(((3′S,5S,7′R)-10′-((2,4-difluorobenzyl)carbamoyl)-3,3′-dimethyl-1′,11′-dioxo-1′,4′,5′,11′-tetrahydro-3′H,4H,7′H-spiro[isoxazole-5,6′-[2,7]methanopyrido[1,2-a][1,4]diazonin]-12′-yl)oxy)-4-oxobut-2-enoic acid] |  | 16100 | 1.6
16 | CC1=NO[C@@]2(CC[C@H](C)N3C[C@H]2n2cc(C(=O)NCc4ccc(F)cc4F)c(=O)c(OC(=O)CCCCCCCCCCCCCCCCC(=O)O)c2C3=O)C1 [Example 76, 18-(((3′S,5S,7′R)-10′-((2,4-difluorobenzyl)carbamoyl)-3,3′-dimethyl-1′,11′-dioxo-1′,4′,5′,11′-tetrahydro-3′H,4H,7′H-spiro[isoxazole-5,6′-[2,7]methanopyrido[1,2-a][1,4]diazonin]-12′-yl)oxy)-18-oxooctadecanoic acid] | 0.518 | 46000 | 
17 | COC1=NO[C@@]2(CC[C@H](C)N3C[C@H]2n2cc(C(=O)NCc4ccc(F)cc4F)c(=O)c(OC(=O)CCCCCCCCCCCCCCCCC(=O)O)c2C3=O)C1 [Example 77, 18-(((3′S,5S,7′R)-10′-((2,4-difluorobenzyl)carbamoyl)-3-methoxy-3′-methyl-1′,11′-dioxo-1′,4′,5′,11′-tetrahydro-3′H,4H,7′H-spiro[isoxazole-5,6′-[2,7]methanopyrido[1,2-a][1,4]diazonin]-12′-yl)oxy)-18-oxooctadecanoic acid] | 0.658 | ≥ 50000 | 
18 | COC(=O)N[C@H](C(=O)Oc1c2n(cc(C(=O)NCc3ccc(F)cc3F)c1=O)[C@@H]1CN(C2=O)[C@@H](C)CC[C@]12CC(OC)=NO2)C(C)C [Example 80] | 1.3 | 19800 | 
19 | COC(=O)N[C@H](C(=O)Oc1c2n(cc(C(=O)NCc3ccc(F)cc3F)c1=O)[C@@H]1CN(C2=O)[C@@H](C)CC[C@]12CC(C)=NO2)C(C)C [Example 81] | 1.44 | 18100 | 
